Entries after “also recorded” stand apart in the source; their conditions may differ.
Key:
solubility = assay type: physicochemical
[1] = tested on: high-grade ovarian cancer cells (OVCAR8) labeled with luciferase gene; test: in vivo therapy experiment, orthotopic OVCAR8-L ovarian cancer mouse model; design: species or system mice; details: GP-2250 500 mg/kg 3 times per week i.p., PARP inhibitor 50 mg/kg 5 times per week i.p., take down day 49
Procedure: FIG. 1 schematically illustrates the experimental design for in vivo testing of the GP-2250 and PARP inhibitors on OVCAR8-L mice. The experiment includes testing: vehicle control, Ringer's solution (10 mice, 200 μl, i.p.); 2) GP-2250 (10 mice, 500 mg/kg. 3 times per week, i.p.); 3) Olaparib (10 mice, 50 mg/kg, 5 times per week, i.p.); 4) the combination of GP-2250 and Olaparib; 5) Niraparib (10 mice, 50 mg/kg, 5 times per week, i.p.); 6) the combination of GP-2250 and Niraparib (10 mice): 7) Rucparib (10 mice, 50 mg/kg, 5 times per week, i.p.); 8) the combination of GP-2250 and Rucaparib . . .
Tumorigenicity of OVCAR8-L was determined using IVIS imaging. IVIS imaging following OCVAR8-L injection. 1×10^6 cells were injected through i.p., and then tumorigenicity was measured. All mice were injected with high-grade ovarian cancer cells (OVCAR8) labeled with luciferase gene by i.p. route.
(§1) In vivo model of ovarian cancer: Pharmacodynamic study and therapeutic experiment using OVCAR8 ovarian cancer model were performed.

AKT [2] = test: Reverse Phase Protein Array / Western blotting of ovarian cancer cells: AKT; assay type: cell-based, Human
Procedure: (§2) Human Ovarian cancer cell lines: A2780, Coav3, HeyA8, HeyA8-MDR, Kuramochi, OVCAR3, OVCAR5, OVCAR8, and SKOV3 were obtained and used in studies.
(§3) In vitro assays: Cell viability assay, Western blotting, Colony formation assay, Reverse-phase protein array, and Ultra-high resolution mass spectrometry analysis were performed.

AKT [3] = test: in vivo pharmacodynamic experiment, OVCAR8 mouse model: AKT; details: dose of 500 mg/kg
Procedure: as §1
(§4) FIGS. 17A-17B show pharmacodynamics studies of GP-2250.

HIF-1α = test: Reverse Phase Protein Array / Western blotting of ovarian cancer cells: HIF-1α; assay type: cell-based, Human
Procedure: as §2, §3

[4] = tested on: ovarian cancer cell lines; test: cytotoxic effect / cell viability assay in ovarian cancer cell lines; assay type: cell-based, Human
Procedure: as §2, §3, §1

cancer cells = test: glycolysis and ATP synthesis in cancer cells; assay type: cell-based, Human
Procedure: as §3

hexokinase2 = molecular target: T1, hexokinase2 (Homo sapiens, UniProt P52789); test: hexokinase2 activity and expression (ultra-high resolution mass spectrometry analysis, FIG. 16); assay type: cell-based; details: GP-2250 treatment of cancer cells
T1 construct: endogenous in cells; host or cells: human ovarian cancer cell lines
T1 sequence (P52789 1-917): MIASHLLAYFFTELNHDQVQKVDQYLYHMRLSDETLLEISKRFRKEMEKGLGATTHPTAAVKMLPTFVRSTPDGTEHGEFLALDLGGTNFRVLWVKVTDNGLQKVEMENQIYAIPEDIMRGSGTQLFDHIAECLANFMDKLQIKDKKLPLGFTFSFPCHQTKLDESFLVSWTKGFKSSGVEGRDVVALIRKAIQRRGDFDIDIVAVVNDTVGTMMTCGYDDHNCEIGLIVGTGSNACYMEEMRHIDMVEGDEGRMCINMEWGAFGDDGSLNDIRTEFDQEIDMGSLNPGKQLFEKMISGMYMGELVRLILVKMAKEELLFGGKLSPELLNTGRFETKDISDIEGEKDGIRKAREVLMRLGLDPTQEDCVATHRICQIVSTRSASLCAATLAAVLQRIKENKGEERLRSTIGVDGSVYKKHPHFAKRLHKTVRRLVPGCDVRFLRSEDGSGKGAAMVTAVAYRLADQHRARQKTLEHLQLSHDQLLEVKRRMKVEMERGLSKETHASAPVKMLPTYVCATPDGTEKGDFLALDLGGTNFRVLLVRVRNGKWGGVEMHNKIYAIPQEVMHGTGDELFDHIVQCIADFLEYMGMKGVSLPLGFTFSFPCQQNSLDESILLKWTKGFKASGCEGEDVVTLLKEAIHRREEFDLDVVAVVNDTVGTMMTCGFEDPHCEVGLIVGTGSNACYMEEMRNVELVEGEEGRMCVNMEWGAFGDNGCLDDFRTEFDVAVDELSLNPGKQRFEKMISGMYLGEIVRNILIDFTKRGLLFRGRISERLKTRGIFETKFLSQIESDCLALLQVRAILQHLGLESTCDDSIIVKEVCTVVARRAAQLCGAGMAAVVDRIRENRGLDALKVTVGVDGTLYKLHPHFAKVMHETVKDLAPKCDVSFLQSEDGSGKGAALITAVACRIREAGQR
Procedure: as §2, §3

mTOR [5] = test: Reverse Phase Protein Array / Western blotting of ovarian cancer cells: mTOR; assay type: cell-based, Human
Procedure: as §2, §3

mTOR [6] = test: in vivo pharmacodynamic experiment, OVCAR8 mouse model: mTOR; details: dose of 500 mg/kg
Procedure: as §1, §4

[7] = Western blot, ovarian cancer cells treated for 24 hours

## CNCc1ccc(-c2[nH]c3cc(F)cc4c3c2CCNC4=O)cc1 [rucaparib]
solubility
  solubility: relatively poor solubility
[1]
  tumor nodules (number): 4.85±0.79
  tumor weight: 0.52 ± 0.1 g

## O=C(c1cc(Cc2n[nH]c(=O)c3ccccc23)ccc1F)N1CCN(C(=O)C2CC2)CC1 [olaparib]
[1]
  tumor nodules (number): 3.3±0.64
  tumor weight: 0.53 ± 0.09 g

## NC(=O)c1cccc2cn(-c3ccc([C@@H]4CCCNC4)cc3)nc12 [niraparib]
[1]
  tumor nodules (number): 3.4±0.44
  tumor weight: 0.38 ± 0.05 g

## O=S1(=O)CCOCN1 [GP-2250]
AKT [2]; RPPA analyses
  AKT activation and expression level: inhibited
AKT [2]; [7]
  AKT expression: inhibits
AKT [3]
  downregulation of AKT activation and expression: most effective
HIF-1α; RPPA analyses
  hypoxia-inducible factor-1a activation and expression level: inhibited
HIF-1α; [7]
  HIF-1α expression: inhibits
[4]; HRD cells (Kuramochi, OVCAR4, OVCAR8) compared with HRP cells (A2780, OVCAR5), both vulnerable
  cytotoxic effect: vulnerability of HRD versus HRP ovarian cancer cells: more vulnerable
[4]; ovarian cancer cells
  apoptosis: increased apoptosis
  proliferation: reduced proliferation
Cancer cells
  ATP synthesis: reduced
  glycolysis: decreases; also recorded: reduced
hexokinase2
  hexokinase2 activity and expression: inhibition; also recorded: significantly reduced
mTOR [5]; RPPA analyses
  mTOR activation and expression level: inhibited
mTOR [5]; [7]
  mTOR expression: inhibits
[1]
  tumor nodules (number): 2.9±0.48
  tumor weight: 2.9 ± 0.48 g
mTOR [6]
  downregulation of mTOR activation and expression: most effective

From patent US20260027126A1, “COMBINATION THERAPY FOR TREATING CANCERS” (GEISTLICH PHARMA AG, priority 2022, published 2026)
